The values that follow come from PubChem BioAssay AID743274 (The Scripps Research Institute Molecular Screening Center, 2014).

The source made the active and inactive calls.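 The calls were made as follows: active = malaria parasite growth inhibition of at least 50% at 10 µM in any single replicate well; inactive = under 50% inhibition in every replicate.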

The subject of the assay is P. falciparum 3D7 in RBCs, 3H-hypoxanthine incorporation, 48 h. The assay can be described thus: P. falciparum growth inhibition in erythrocytes, late-stage follow-up, P. falciparum M17LAP inhibitor project, cell-based, 3H-hypoxanthine radiolabel, RBCs, Set 2 (AID 743274). Conditions: at 10 µM; hits give high values.

As a reminder, the inhibition is the percentage by which the read-out fell short of the control. Consider `O=C(Cc1ccc2c(c1)CCCC2)NO`, for which the inhibition is 82.5%.

Take `CC(C)(C(=O)NO)c1ccccc1`: the inhibition was 0% (inactive).

On to `CCCCOc1ccc(CN(O)C(C)=O)cc1`, for which the inhibition is 19.5% (inactive).

Regarding `O=C(Cc1ccc(Oc2ccccc2)cc1)NO`, the inhibition is 38.5%.

As for `COc1ccc(CC(=O)NO)cc1`, the inhibition is 50%.

As to `N[C@@H](Cc1c[nH]c2ccccc12)C(=O)NO`, the inhibition is 2.5% (inactive).

As for `CCCCOc1ccc(C(C)C(=O)NO)cc1` (stereo unspecified), the inhibition is 59.5%.

With `O=C(NO)c1cccc2ccccc12`, the inhibition was 0% (inactive).

Regarding `CC(C)C[C@H](N)C(=O)NO`, the inhibition is 1% (inactive).

`CCCCOc1cccc(CC(=O)OC)c1`: the inhibition is 3% (inactive).

On to `CCCCOc1cccc(CC(=O)NO)c1`, for which the inhibition is 32.5% (inactive).

`O=C(Cc1ccc(OCc2ccccc2)cc1)NO`: the inhibition was 93%.

Take `CCCCOc1ccc(CCC(=O)NO)cc1`: the inhibition was 26% (inactive).

For `CCCCOc1ccc(C(C)(C)C(=O)NO)cc1`, the inhibition is 12% (inactive).

`CCCCOc1ccc(CC(=O)O)cc1`: the inhibition was 0% (inactive).

In the case of `O=C(NO)c1ccc2ccccc2c1`, the inhibition was 53.5%.

With `CN(O)C(=O)Cc1ccc(OCc2ccccc2)cc1`, the inhibition was 15.5% (inactive).

As to `CCCCc1ccc(CC(=O)NO)cc1`, the inhibition is 84.5%.

For `CCCCCCCCCC(=O)NO`, the inhibition was 53%.

For the compound `NC(N)=NCCC[C@H](N)C(=O)NO`, the inhibition was 0% (inactive).

For the compound `CC(C)COc1ccc(CC(=O)NO)cc1`, the inhibition was 69%.

For the compound `CCCCOc1ccc(CNc2c(N(O)Cc3ccccc3)c(=O)c2=O)cc1`, the inhibition is 0% (inactive).

In the case of `CCCOc1ccc(CC(=O)NO)cc1`, the inhibition is 74%.

As to `O=C(Cc1cccc2ccccc12)NO`, the inhibition is 14.5% (inactive).

Take `CCCCOc1ccc(C(=O)NO)cc1`: the inhibition is 73.5%.

On to `Cc1ccc(CC(=O)NO)cc1`, for which the inhibition was 53%.

In the case of `CCCCOc1ccc(CNc2c(N(C)O)c(=O)c2=O)cc1`, the inhibition is 63%.

Turning to `CCCCOc1ccc(CN(O)C(=O)c2ccccc2)cc1`, the inhibition was 59.5%.

`O=C(Cc1ccc2ccccc2c1)NO`: the inhibition was 52%.

Regarding `CCCCOc1ccc(C(C)C(=O)O)cc1` (stereo unspecified), the inhibition is 0% (inactive).

As for `CCC(C)Oc1ccc(CC(=O)NO)cc1` (stereo unspecified), the inhibition was 71%.

As for `CCCCOc1ccc(C(C)C(=O)OC)cc1` (stereo unspecified), the inhibition was 4.5% (inactive).

Regarding `COc1ccc(OCCC(=O)NO)cc1`, the inhibition was 9% (inactive).

Take `CCCCOc1ccc(CC(=O)N(C)O)cc1`: the inhibition is 58%.

Turning to `COc1ccc(CCCC(=O)NO)cc1`, the inhibition was 15.5% (inactive).

Turning to `CCOc1ccc(CC(=O)NO)cc1`, the inhibition was 70%.
